From article PMC12491383, “Organ and tumour dosimetry of ^177Lu-rhPSMA-10.1, a novel PSMA-targeted therapy: results from a Phase I trial” (European Journal of Nuclear Medicine and Molecular Imaging, 2025)
Values joined by “and” are separate entries in the source; they are usually repeats but may differ in a detail not shown here. Equal entries are not always repeated.

Assay: SPECT/CT image-based normal organ dosimetry (MIRD S-value methodology), Phase I BET-PSMA-121
Format: in vivo, human
Settings: for Cumulative image-based absorbed dose, bone marrow, range across patients / Cumulative image-based absorbed dose, salivary glands, range across patients: all cycles; for Cumulative Absorbed Dose, Bone Marrow, % of dose limit: limit 2 Gy; for Cumulative Absorbed Dose, Kidney, % of dose limit: limit 23 Gy; for Cumulative Absorbed Dose, Salivary Glands, % of dose limit: limit 24 Gy
Description: Figure 1 provides a schematic representation of the study. Enrolled patients were sequentially entered into one of the two cohorts. Cohort A received 5.55 GBq (150 mCi) of ^177Lu-rhPSMA-10.1 and Cohort B received 7.40 GBq (200 mCi) of ^177Lu-rhPSMA-10.1. Subsequent doses were delivered at 6-week intervals subject to individual tolerability and safety assessments. Each patient received between one and three cycles, with a maximum of three cycles of treatment being permitted in this initial part of the study. All administrations of ^177Lu-rhPSMA-10.1 were performed using intravenous injection under the supervision of the treating physician.
Multi-bed single-photon emission computed tomography (SPECT)/CT was conducted at 3-, 24-, 48- and 168-hours post-^177Lu-rhPSMA-10.1 administration in each treatment cycle for the estimation of organ and tumour absorbed doses in each patient. Prior to commencement of the study, each investigating site was required to complete a calibration of their dose calibrator and SPECT/CT system to ensure harmonised quantification of the imaging data. Quantitative reconstructions and all dosimetry analyses were carried out centrally by an independent dosimetry vendor (Radiopharmaceutical Imaging and Dosimetry LLC, Baltimore, MD).
The specific absorbed doses (Gy/GBq) in normal organs and tumours were determined using the Medical Internal Radiation Dose (MIRD) Committee S-value methodology. Individual patient organ masses, determined via CT delineation, were scaled to reflect deviations from reference phantom geometry. Cumulative organ absorbed doses (Gy) were calculated across all treatment cycles. Further details on dosimetry methodology are provided in the supplemental materials and have been reported in accordance with EANM guidance.
All patients underwent multi-bed single-photon emission computed tomography (SPECT)/CT at 3-, 24-, 48- and 168-hours post-^177Lu-rhPSMA-10.1 administration during each treatment cycle. The acquisition parameters are shown in Supplemental Table S1. All images were centrally reconstructed in 3D-RD-S using the iterative Ordered Subsets Expectation-Maximization (OSEM) algorithm with 40 iterations and 5 subsets. Attenuation, scatter, and the Collimator-Detector Response Function (CDRF) were modelled during the iterative process using a rotation-based projector. CT-based attenuation compensation was performed using the attenuation map generated from the CT image. Scatter was modelled using the Effective Source Scatter Estimation (ESSE) method.
Reconstructed images were converted to activity concentration units (Becquerel (Bq)/millilitre (mL)) using the calibration factor generated for each individual imaging system. Organ masses were individually determined using CT-based delineations and longitudinal SPECT activity statistics were based on these same delineations.
Time integrated activity coefficients (TIACs) were calculated for each target tissue. This was done by fitting each time–activity curve with an exponential function (mono, bi, or exponential uptake and washout) and integrating from time 0 to infinity. The simpler function was preferred provided the fit was adequate ([…]).
The TIAC in the bone marrow was derived from contours drawn around the marrow inside lumbar vertebrae L3–L5. Where lesions were present in the lumbar area, contours were drawn around either the femur heads, scapula or sternum depending on the anatomical coverage. The TIAC was then divided by the marrow mass in this region to give the TIAC concentration. The total bone marrow TIAC was be obtained as the product of this concentration and the standard International Commission on Radiological Protection (ICRP) bone marrow mass.
The S-value methodology was used to estimate the target tissue dose. […]

[1] = Cohort A (5.55 GBq/cycle), 3 patients
[2] = Cohort B (7.40 GBq/cycle), 10 patients
[3] = Patient 1, Cohort A, 3 cycles, 16.20 GBq cumulative
[4] = Patient 2, Cohort A, 2 cycles, 11.57 GBq cumulative
[5] = Patient 3, Cohort A, 3 cycles, 16.58 GBq cumulative
[6] = Patient 4, Cohort B, 3 cycles, 22.94 GBq cumulative

CC(C)(C)[Si](F)(c1ccc(C(=O)NC[C@@H](NC(=O)CN2CCN(CC(=O)[O-])CCN(CC(=O)[O-])CCN(CC(=O)[O-])CC2)C(=O)N[C@H](CCCCNC(=O)CCC(=O)NCCC[C@@H](NC(=O)CC[C@H](NC(=O)N[C@@H](CCC(=O)O)C(=O)O)C(=O)O)C(=O)O)C(=O)O)cc1)C(C)(C)C.[177Lu+3] [^177Lu-rhPSMA-10.1]
Mean (SD) Absorbed Dose, adrenals (All Cycles): 0.010 (0.018) Gy/GBq | Mean (SD) Absorbed Dose, bladder wall (All Cycles): 0.018 (0.010) Gy/GBq | Mean (SD) Absorbed Dose, bone marrow (image-based) (All Cycles): 0.011 Gy/GBq and 0.011 (0.020) Gy/GBq | Mean (SD) Absorbed Dose, brain (All Cycles): 0.003 (0.004) Gy/GBq | Mean (SD) Absorbed Dose, gall bladder wall (All Cycles): 0.004 (0.002) Gy/GBq | Mean (SD) Absorbed Dose, heart (All Cycles): 0.014 (0.003) Gy/GBq | Mean (SD) Absorbed Dose, intestine (All Cycles): 0.002 (0.001) Gy/GBq | Mean (SD) Absorbed Dose, kidneys (All Cycles): 0.297 (0.098) Gy/GBq | Mean (SD) Absorbed Dose, lacrimal glands (All Cycles): 0.611 (0.329) Gy/GBq | Mean (SD) Absorbed Dose, liver (All Cycles): 0.035 (0.018) Gy/GBq | Mean (SD) Absorbed Dose, lungs (All Cycles): 0.049 (0.055) Gy/GBq | Mean (SD) Absorbed Dose, pancreas (All Cycles): 0.002 (0.001) Gy/GBq | Mean (SD) Absorbed Dose, prostate (All Cycles): 0.003 (0.002) Gy/GBq | Mean (SD) Absorbed Dose, salivary glands (All Cycles): 0.134 (0.077) Gy/GBq | Mean (SD) Absorbed Dose, spleen (All Cycles): 0.034 (0.019) Gy/GBq | Mean (SD) Absorbed Dose, stomach wall (All Cycles): 0.004 (0.003) Gy/GBq | Mean (SD) Absorbed Dose, ureters (All Cycles): 0.002 (0.001) Gy/GBq | Cumulative image-based absorbed dose, bone marrow, range across patients [1]: 0.14–0.87 Gy | Cumulative image-based absorbed dose, salivary glands, range across patients [1]: 1.25–5.53 Gy | Cumulative image-based absorbed dose, bone marrow, range across patients [2]: 0.03–0.42 Gy | Cumulative image-based absorbed dose, salivary glands, range across patients [2]: 0.79–3.40 Gy | Mean (SD) Absorbed Dose, adrenals (Cycle 1, 13 patients): 0.007 (0.002) Gy/GBq | Mean (SD) Absorbed Dose, bladder wall (Cycle 1, 13 patients): 0.018 (0.013) Gy/GBq | Mean (SD) Absorbed Dose, bone marrow (image-based) (Cycle 1, 13 patients): 0.011 (0.010) Gy/GBq | Mean (SD) Absorbed Dose, brain (Cycle 1, 13 patients): 0.002 (0.001) Gy/GBq | Mean (SD) Absorbed Dose, gall bladder wall (Cycle 1, 13 patients): 0.004 (0.002) Gy/GBq | Mean (SD) Absorbed Dose, heart (Cycle 1, 13 patients): 0.013 (0.004) Gy/GBq | Mean (SD) Absorbed Dose, intestine (Cycle 1, 13 patients): 0.002 (0.001) Gy/GBq | Mean (SD) Absorbed Dose, kidneys (Cycle 1, 13 patients): 0.266 Gy/GBq and 0.27 Gy/GBq and 0.266 (0.075) Gy/GBq | Mean (SD) Absorbed Dose, lacrimal glands (Cycle 1, 13 patients): 0.568 (0.348) Gy/GBq | Mean (SD) Absorbed Dose, liver (Cycle 1, 13 patients): 0.034 (0.021) Gy/GBq | Mean (SD) Absorbed Dose, lungs (Cycle 1, 13 patients): 0.058 (0.072) Gy/GBq | Mean (SD) Absorbed Dose, pancreas (Cycle 1, 13 patients): 0.002 (0.001) Gy/GBq | Mean (SD) Absorbed Dose, prostate (Cycle 1, 13 patients): 0.003 (0.002) Gy/GBq | Mean (SD) Absorbed Dose, salivary glands (Cycle 1, 13 patients): 0.130 Gy/GBq and 0.13 Gy/GBq and 0.130 (0.068) Gy/GBq | Mean (SD) Absorbed Dose, spleen (Cycle 1, 13 patients): 0.034 (0.023) Gy/GBq | Mean (SD) Absorbed Dose, stomach wall (Cycle 1, 13 patients): 0.005 (0.005) Gy/GBq | Mean (SD) Absorbed Dose, ureters (Cycle 1, 13 patients): 0.002 (0.001) Gy/GBq | Cumulative Absorbed Dose, Bone Marrow [3]: 0.14 Gy | Cumulative Absorbed Dose, Kidney [3]: 8.20 Gy | Cumulative Absorbed Dose, Salivary Glands [3]: 5.53 Gy | Cumulative Absorbed Dose, Bone Marrow, % of dose limit [3]: 7.0% | Cumulative Absorbed Dose, Kidney, % of dose limit [3]: 36% | Cumulative Absorbed Dose, Salivary Glands, % of dose limit [3]: 23% | Cumulative Absorbed Dose, Bone Marrow [4]: 0.14 Gy | Cumulative Absorbed Dose, Kidney [4]: 5.86 Gy | Cumulative Absorbed Dose, Salivary Glands [4]: 1.25 Gy | Cumulative Absorbed Dose, Bone Marrow, % of dose limit [4]: 7.0% | Cumulative Absorbed Dose, Kidney, % of dose limit [4]: 25% | Cumulative Absorbed Dose, Salivary Glands, % of dose limit [4]: 5.2% | Cumulative Absorbed Dose, Bone Marrow [5]: 0.87 Gy | Cumulative Absorbed Dose, Kidney [5]: 6.15 Gy | Cumulative Absorbed Dose, Salivary Glands [5]: 2.96 Gy | Cumulative Absorbed Dose, Bone Marrow, % of dose limit [5]: 44% | Cumulative Absorbed Dose, Kidney, % of dose limit [5]: 27% | Cumulative Absorbed Dose, Salivary Glands, % of dose limit [5]: 12% | Cumulative Absorbed Dose, Bone Marrow [6]: 0.13 Gy | Cumulative Absorbed Dose, Kidney [6]: 8.33 Gy | Cumulative Absorbed Dose, Salivary Glands [6]: 2.87 Gy
